Results taken from PubChem BioAssay AID2060904 (Molecular Pharmacology Branch, DTP, NCI, 2025).

Test system: 349418-098-R-PDC complex spheroid viability
Assay: Anticancer human tumor 349418-098-R-PDC patient-derived lung adenocarcinoma cell line growth inhibition [RAS]
Details: for IC50: curve of first compound; for viability, T/C: stronger effect = lower value
Method in brief: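 Multi-cell-type spheroids: tumor cells plus HUVEC endothelial cells and mesenchymal stem cells. RAS-pathway inhibitors were combined with targeted agents, each dosed in half-log steps down from clinical Cmax, or from 10 microM when Cmax was unknown.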

[1] = second compound 0.00316 µM, first compound 0.000949 µM
[2] = second compound 0.00316 µM, first compound 0.003 µM
[3] = second compound 0.00316 µM, first compound 0.00949 µM
[4] = second compound 0.00316 µM, first compound 0.03 µM
[5] = second compound 0.00316 µM, first compound 0.0949 µM
[6] = second compound 0.00316 µM, first compound 0.3 µM
[7] = second compound 0.01 µM, first compound 0.000949 µM
[8] = second compound 0.01 µM, first compound 0.003 µM
[9] = second compound 0.01 µM, first compound 0.00949 µM
[10] = second compound 0.01 µM, first compound 0.03 µM
[11] = second compound 0.01 µM, first compound 0.0949 µM
[12] = second compound 0.01 µM, first compound 0.3 µM
[13] = second compound 0.0316 µM, first compound 0.000949 µM
[14] = second compound 0.0316 µM, first compound 0.003 µM
[15] = second compound 0.0316 µM, first compound 0.00949 µM
[16] = second compound 0.0316 µM, first compound 0.03 µM
[17] = second compound 0.0316 µM, first compound 0.0949 µM
[18] = second compound 0.0316 µM, first compound 0.3 µM
[19] = second compound 0.1 µM, first compound 0.000949 µM
[20] = second compound 0.1 µM, first compound 0.003 µM
[21] = second compound 0.1 µM, first compound 0.00949 µM
[22] = second compound 0.1 µM, first compound 0.03 µM
[23] = second compound 0.1 µM, first compound 0.0949 µM
[24] = second compound 0.1 µM, first compound 0.3 µM
[25] = second compound 0.316 µM, first compound 0.000949 µM
[26] = second compound 0.316 µM, first compound 0.003 µM
[27] = second compound 0.316 µM, first compound 0.00949 µM
[28] = second compound 0.316 µM, first compound 0.03 µM
[29] = second compound 0.316 µM, first compound 0.0949 µM
[30] = second compound 0.316 µM, first compound 0.3 µM
[31] = second compound 1 µM, first compound 0.000949 µM
[32] = second compound 1 µM, first compound 0.003 µM
[33] = second compound 1 µM, first compound 0.00949 µM
[34] = second compound 1 µM, first compound 0.03 µM
[35] = second compound 1 µM, first compound 0.0949 µM
[36] = second compound 1 µM, first compound 0.3 µM
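Note: spheroids exposed to compound for seven days before viability readout.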

For CC(=O)OC12COC1CC(O)C1(C)C(=O)C(O)C3=C(C)C(OC(=O)C(O)C(NC(=O)OC(C)(C)C)c4ccccc4)CC(O)(C(OC(=O)c4ccccc4)C21)C3(C)C (stereo unspecified) + C=CC(=O)N1CCN(c2nc(OCC3CCCN3C)nc3c(F)c(-c4nc(N)cc(C)c4C(F)(F)F)c(Cl)cc23)C(C)C1, the IC50 (second compound 0.00316 µM) was < 31.6 nM, the IC50 (second compound 0.01 µM) was < 31.6 nM and the IC50 (second compound 0.0316 µM) was < 31.6 nM. The IC50 (second compound 0.1 µM) was < 31.6 nM, the IC50 (second compound 0.316 µM) was < 31.6 nM and the IC50 (second compound 1 µM) was < 31.6 nM. It also gave a viability, T/C (second compound 0.00316 µM, first compound 0.0316 µM) of 12.6%, a viability, T/C (second compound 0.00316 µM, first compound 0.1 µM) of 17.8% and a viability, T/C (second compound 0.00316 µM, first compound 0.316 µM) of 16.3%. It also gave a viability, T/C (second compound 0.00316 µM, first compound 1 µM) of 20.1%, a viability, T/C (second compound 0.00316 µM, first compound 3.16 µM) of 23.8% and a viability, T/C (second compound 0.00316 µM, first compound 10 µM) of 23.6%. It also gave a viability, T/C (second compound 0.01 µM, first compound 0.0316 µM) of 12.8%, a viability, T/C (second compound 0.01 µM, first compound 0.1 µM) of 16.6% and a viability, T/C (second compound 0.01 µM, first compound 0.316 µM) of 14.5%. The viability, T/C (second compound 0.01 µM, first compound 1 µM) was 20.7%, the viability, T/C (second compound 0.01 µM, first compound 3.16 µM) was 19.3% and the viability, T/C (second compound 0.01 µM, first compound 10 µM) was 19.1%. The viability, T/C (second compound 0.0316 µM, first compound 0.0316 µM) was 16.9%, the viability, T/C (second compound 0.0316 µM, first compound 0.1 µM) was 15.2% and the viability, T/C (second compound 0.0316 µM, first compound 0.316 µM) was 15.4%. It also gave a viability, T/C (second compound 0.0316 µM, first compound 1 µM) of 22.6%, a viability, T/C (second compound 0.0316 µM, first compound 3.16 µM) of 22.9% and a viability, T/C (second compound 0.0316 µM, first compound 10 µM) of 26.5%. For the same compound, the viability, T/C (second compound 0.1 µM, first compound 0.0316 µM) was 13%, the viability, T/C (second compound 0.1 µM, first compound 0.1 µM) was 15% and the viability, T/C (second compound 0.1 µM, first compound 0.316 µM) was 16.5%. The viability, T/C (second compound 0.1 µM, first compound 1 µM) was 16.1%, the viability, T/C (second compound 0.1 µM, first compound 3.16 µM) was 24.3% and the viability, T/C (second compound 0.1 µM, first compound 10 µM) was 21.4%. The viability, T/C (second compound 0.316 µM, first compound 0.0316 µM) was 16.8%, the viability, T/C (second compound 0.316 µM, first compound 0.1 µM) was 18.1% and the viability, T/C (second compound 0.316 µM, first compound 0.316 µM) was 18.2%. The viability, T/C (second compound 0.316 µM, first compound 1 µM) was 18.2%, the viability, T/C (second compound 0.316 µM, first compound 3.16 µM) was 21.6% and the viability, T/C (second compound 0.316 µM, first compound 10 µM) was 25.6%. For the same compound, the viability, T/C (second compound 1 µM, first compound 0.0316 µM) was 13.8%, the viability, T/C (second compound 1 µM, first compound 0.1 µM) was 12% and the viability, T/C (second compound 1 µM, first compound 0.316 µM) was 18.8%. For the same compound, the viability, T/C (second compound 1 µM, first compound 1 µM) was 20.2%, the viability, T/C (second compound 1 µM, first compound 3.16 µM) was 20.2% and the viability, T/C (second compound 1 µM, first compound 10 µM) was 25.8%.
With CC1(C)CCC(Nc2ncc(C(F)(F)F)c(-c3c[nH]c4c(P(C)(C)=O)c(C#N)ccc34)n2)CN1 (stereo unspecified) + C=CC(=O)N1CCN(c2nc(OCC3CCCN3C)nc3c(F)c(-c4nc(N)cc(C)c4C(F)(F)F)c(Cl)cc23)C(C)C1 the IC50 (second compound 0.00316 µM) was 1.25 nM, the IC50 (second compound 0.01 µM) was 1.19 nM and the IC50 (second compound 0.0316 µM) was < 0.949 nM. It also gave an IC50 (second compound 0.1 µM) of 1.07 nM, an IC50 (second compound 0.316 µM) of 1.16 nM and an IC50 (second compound 1 µM) of 1.27 nM. It also gave a viability, T/C [1] of 57.1%, a viability, T/C [2] of 27.2% and a viability, T/C [3] of 15.7%. The viability, T/C [4] was 9.16%, the viability, T/C [5] was 9.76% and the viability, T/C [6] was 8.19%. For the same compound, the viability, T/C [7] was 56.4%, the viability, T/C [8] was 24.6% and the viability, T/C [9] was 16.1%. It also gave a viability, T/C [10] of 9.39%, a viability, T/C [11] of 12.1% and a viability, T/C [12] of 7.38%. It also gave a viability, T/C [13] of 44%, a viability, T/C [14] of 23.3% and a viability, T/C [15] of 18.3%. It also gave a viability, T/C [16] of 11.6%, a viability, T/C [17] of 11.7% and a viability, T/C [18] of 8.91%. For the same compound, the viability, T/C [19] was 53.1%, the viability, T/C [20] was 25.3% and the viability, T/C [21] was 12.4%. For the same compound, the viability, T/C [22] was 14.6%, the viability, T/C [23] was 13.2% and the viability, T/C [24] was 8.82%. It also gave a viability, T/C [25] of 54.9%, a viability, T/C [26] of 29.1% and a viability, T/C [27] of 14.6%. The viability, T/C [28] was 12.8%, the viability, T/C [29] was 13.3% and the viability, T/C [30] was 9.31%. The viability, T/C [31] was 58.9%, the viability, T/C [32] was 24.2% and the viability, T/C [33] was 15.7%. The viability, T/C [34] was 14.2%, the viability, T/C [35] was 10.3% and the viability, T/C [36] was 7.97%.
CCc1c2c(nc3ccc(O)cc13)-c1cc3c(c(=O)n1C2)COC(=O)[C@]3(O)CC + C=CC(=O)N1CCN(c2nc(OCC3CCCN3C)nc3c(F)c(-c4nc(N)cc(C)c4C(F)(F)F)c(Cl)cc23)C(C)C1 gave an IC50 (second compound 0.00316 µM) of 0.951 nM, an IC50 (second compound 0.01 µM) of 1.8 nM and an IC50 (second compound 0.0316 µM) of 1.75 nM. It also gave an IC50 (second compound 0.1 µM) of 0.985 nM, an IC50 (second compound 0.316 µM) of 1.2 nM and an IC50 (second compound 1 µM) of 1.69 nM. The viability, T/C [1] was 50%, the viability, T/C [2] was 28.8% and the viability, T/C [3] was 6.39%. The viability, T/C [4] was 4.43%, the viability, T/C [5] was 3.41% and the viability, T/C [6] was 2.43%. The viability, T/C [7] was 69.1%, the viability, T/C [8] was 35% and the viability, T/C [9] was 7.67%. For the same compound, the viability, T/C [10] was 4.23%, the viability, T/C [11] was 2.64% and the viability, T/C [12] was 1.87%. For the same compound, the viability, T/C [13] was 70.9%, the viability, T/C [14] was 31.7% and the viability, T/C [15] was 11.7%. It also gave a viability, T/C [16] of 4.13%, a viability, T/C [17] of 2.62% and a viability, T/C [18] of 2.07%. For the same compound, the viability, T/C [19] was 50.8%, the viability, T/C [20] was 27.1% and the viability, T/C [21] was 10.5%. It also gave a viability, T/C [22] of 4.6%, a viability, T/C [23] of 3.02% and a viability, T/C [24] of 2.05%. The viability, T/C [25] was 57.2%, the viability, T/C [26] was 21.9% and the viability, T/C [27] was 7.59%. The viability, T/C [28] was 4.71%, the viability, T/C [29] was 2.92% and the viability, T/C [30] was 1.94%. It also gave a viability, T/C [31] of 73.1%, a viability, T/C [32] of 26.9% and a viability, T/C [33] of 9.24%. For the same compound, the viability, T/C [34] was 5.15%, the viability, T/C [35] was 3.55% and the viability, T/C [36] was 2.46%.
